Experimental data from patent US8993626B2, “Methods of treatment using sterculic acid” (The United States of America, as represented by the …, priority 2010, dated 2015).

Columns and labels:
ARPE-19 cells [1] = experiment: qRT-PCR of inflammatory cytokines and ER stress markers, 7KCh-mediated inflammation; assay type: cell-based; details: for effect on 7KCh-mediated mRNA induction (inflammatory response): 1 μM fatty acid + 8 μM 7KCh, FIG. 13; for effect on 7KCh-mediated mRNA induction (inflammatory response) / VEGF mRNA expression / IL-6 mRNA expression / GRP78 mRNA expression / CHOP mRNA expression: 24 hr; for VEGF mRNA expression: FIG. 13A; for IL-6 mRNA expression: FIG. 13B; for GRP78 mRNA expression: FIG. 13C; for CHOP mRNA expression: FIG. 13D
Protocol: FIGS. 13A-13D depict mRNA expressions of (A) VEGF, (B) IL-6, (C) GRP78, and (D) CHOP in response to 8 μM 7KCh with or without 1 μM long-chain fatty acids. Error bars indicate the standard deviations. *p<0.05 comparing to 7KCh, n=3. Two-tailed Student's t-test.
(§1) FIGS. 14A-14D depict mRNA expressions of (A) VEGF, (B) IL-1b, (C) IL-6, and (D) IL-8 in response to 8 μM 7KCh, 1 μM sterculic acid, 1 μM stearic acid, or the combinations of 7KCh with either sterculic acid or stearic acid. Error bars indicate the standard deviations. *p<0.05 comparing to 7KCh, n=4. Two-tailed Student's t-test.
as §1, with “15A-15D” for “14A-14D”, “TNF-α,” for “VEGF,”, “TGF-β1,” for “IL-1b,”, “GRP78,” for “IL-6,”, “CHOP” for “IL-8”, “n=3-4.” for “n=4.”
(§2) ARPE-19 cells were seeded in 24-well plates with 1×10^5 cells per well and allowed to recover for 16-24 hr. Once confluency reached approximately 90%, the effect of the fatty acids against 7KCh-mediated cell death was examined 24 hr after incubation in serum-free medium with 12 μM 7KCh. Fatty acids were tested at 0.1, 0.5, 1, 5 and 10 μM concentrations. The effects of the fatty acids against 7KCh-mediated inflammation and ER stress were examined by incubating cells in 1 μM fatty acids with either 8 μM 7KCh (24 hr for quantitative real-time PCR (qRT-PCR), 24 and 48 hr for immunoblot), or 6 μM 7KCh for 48 hr (for ELISA). Three individual experiments were performed for each treatment with quadruplicate measurements performed for each experiment in 24-well plates.
(§3) The RNA was extracted using RNeasy Mini Kit (Qiagen, Valencia, Calif.). The reverse transcription was performed with reagents and kits from Invitrogen. Quantification of mRNA expression was performed using the Taqman gene expression assays and the following primers (VEGFa, Hs00173626_m1; IL-1β, Hs01555413_m1; IL-6, Hs00174131_m1; IL-8, Hs00174103_m1; IκBα, Hs00153283_m1; GRP78, Hs99999174_m1; CHOP, Hs01090850_m1; NOX2, Hs00166163_m1; NOX4, Hs01558199_m1; SCD, Hs00748952 s1; TNF-α, Hs00174128_m1; TGF-β1, Hs00998133_m1; GAPD, 4352934e). GAPD expression was used as an endogenous standard. All qRT-PCR experiments were measured in triplicates in an ABI 7500 Real-Time PCR Instrument (Applied Biosystems, Foster City, Calif.). The results of each treatment were normalized and presented in percentage relative to the vehicle-only control.

ARPE-19 cells [2] = experiment: Fatty acids against 7KCh-mediated cell death (CCK8); assay type: cell-based; details: for CONC. (μM): lowest concentration required to maintain full cell viability against 7KCh: 12 μM 7KCh for 24 hr, tested 0.1, 0.5, 1, 5 and 10 μM
Protocol: FIGS. 12A-12C depict ARPE-19 cell viability in response to 12 μM 7KCh with or without 0.1-5 μM (A) sterculic acid and (B) stearic acid after 24 hr treatments. Error bars indicate the standard deviations. n=3-5. Two-tailed Student's t-test. (C) Representative images of changes in cell morphology in response to 12 μM 7KCh with or without 1 μM sterculic acid and stearic acid after 24 hr treatments.
as §2
The cell viability was determined by the dehydrogenase activity of the ARPE-19 cells using Cell Counting Kit-8 (CCK8, Dojindo, Gaithersburg, Md.) according to manufacturer's protocol.
The lowest effective concentrations of fatty acids that offset the 7KCh-mediated cell death were determined. […] Table 3 lists the lowest concentrations of these fatty acids required to maintain full cell viability against 12 μM 7KCh treatment. All unsaturated fatty acids protected against 7KCh-induced cell death. […] DHA, α-linolenic, and linoleic acid prevented 7KCh-mediated cell death at 5 μM but the rest of unsaturated fatty acids and dihydrosterculic acid required 10 μM to be protective.

ARPE19 cells [3] = experiment: Cell Counting Kit-8 viability assay, 15 μM 7KCh-induced cytotoxicity; details: 1 μM fatty acid + 15 μM 7KCh, 24 hr, CCK-8
Protocol: 4×10^4 cells were seeded onto wells of a 96 well plate. […] Cell viability was determined as celluar dehydrogenase activity and expressed as the percentage of compound treated cells relative to that of untreated controls. error bar: standard deviation, n=4.
The kit allows sensitive colorimetric assays for the determination of the number of viable cells in cell proliferation and cytotoxicity assays. The amount of the formazan dye generated by the activity of dehydrogenases in cells is directly proportional to the number of living cells.
1) Cells were cultivated in a 96 well cell plate (Costar#3599, Corning Incorp, Corning, N.Y.).
2) The cell suspension (40,000 cells/100 μL) were added to 100 μL culture media per well and stood for 15 min at room temperature and cultured at 37° C. in a humidified 5% CO2 atmosphere.
3) Approximately 19 hr after seeding, when the cells were fully confluent, the cells were treated with either DMSO or 1 μM fatty acid in 200 μL of serum free media and subsequently added with 15 μM 7KCh in HPBCD. Then, the plate was swirled for mixing. The cells were also treated with DMSO and HPBCD, which served as vehicle control. The final DMSO and HPBCD concentrations in the media were in the range of 0.1% and 0.0675%, respectively.
Cell viability was expressed as the percentage of compound treated cells relative to that of untreated controls. Prior to measure cell viability, the cells were imaged live by Nikon TE 2000-U inverted fluorescent microscope.

ARPE19 cells [4] = experiment: CellTiter-Glo luminescent cell viability assay, 15 μM 7KCh-induced cytotoxicity; assay type: cell-based, human; details: 1 μM fatty acid + 15 μM 7KCh, 24 hr, CellTiter-Glo
Protocol: Error bar: standard deviation, n=4.
CellTiter-Glo® Luminescent Cell Viability Assay is a homogeneous method of determining the number of viable cells in culture based on quantitation of the ATP (luminescent signal) present, an indicator of metabolically active cells.
The contents in a plate were mixed for 2 min on an orbital shaker to induce cell lysis.
5) The plate was allowed to incubate at room temperature for 10 min to stabilize luminescent signal.

ARPE19 cells [5] = experiment: 7-ketocholesterol-mediated cytotoxicity, 24-well CCK-8 viability and images; details: 24 hr
ARPE19 cells [6] = experiment: Phase-contrast images of cells after co-treatment with 15 μM 7KCh; assay type: cell-based, human; details: 1 μM fatty acid + 15 μM 7KCh, 24 hr
Description: FIG. 8 depicts phase-contrast images of ARPE19 cells at 24 hr after sterculic acid co-treatment with 7KCh.

ARPE-19 cells [7] = experiment: Immunoblots of CHOP and GRP78; assay type: cell-based; details: 1 μM + 8 μM 7KCh, 24 hr
Protocol: (§4) FIGS. 16A-16E depict the secreted protein levels of (A) VEGF, (B) IL-6, and (C) IL-8 were measure by ELISA 48 hr after treatment with 6 μM 7KCh, 1 μM sterculic acid, 1 μM stearic acid, or the combinations of 7KCh with either sterculic acid or stearic acid. Error bars indicate the standard deviations. *p<0.05 comparing to 7KCh, n=3. Two-tailed Student's t-test. The expressions of GRP78 and CHOP were shown by immunoblots (D) 24 hr or (E) 48 hr after treatment with 8 μM 7KCh, 1 μM sterculic acid, 1 μM stearic acid, or the combinations of 7KCh with either sterculic acid or stearic acid.
as §2
Lysis of ARPE-19 cells was performed using MPER buffer solution (Thermo Fisher Scientific) containing Complete Protease Inhibitor Cocktail (Roche Diagnostics). A total of 10 μg protein samples of the cell lysate were separated by SDS-PAGE on 10% Bis-Tris gels (Invitrogen). The gels were blotted on to nitrocellulose membranes (Invitrogen). The proteins were probed with primary antibodies for CHOP (1:1000 dilution), GRP78 (1:1000), or GAPDH (1:2000) at 4° C. overnight. The membranes were then further incubated with anti-rabbit IgG, HRP-linked antibodies (1:2000 dilution) at room temperature for 1 hr. […]

ARPE-19 cells [8] = experiment: qRT-PCR of cytokines in TNF-α treated cells; assay type: cell-based; details: 24 hr
Protocol: FIGS. 17A-17D depict the mRNA expressions of (A) IL-1β, (B) IL-8, (C) IκBα, and (D) GRP78 in response to 2 ng/ml TNF-α, 1 μM sterculic acid, 1 μM stearic acid, or the combinations of TNF-α with either sterculic acid or stearic acid. n=3. Error bars indicate the standard deviations.
Tumor necrosis factor-alpha (TNF-α, Roche Diagnostics, Indianapolis, Ind.) was diluted in PBS to make 10 μg/ml stock solution and stored at −20° C. In order to test the anti-inflammation effect of fatty acids against TNF-α, ARPE-19 cells were treated with 2 ng/ml of TNF-α for 24 hr in serum-free medium with or without 1 μM fatty acids. The mRNA expressions of cytokines were then examined using qRT-PCR. Each treatment was performed three times with quadruplicate measurements in each experiment, in 24-well plates.
as §3

ARPE-19 cells [9] = experiment: ELISA of secreted VEGF, IL-6, IL-8 in conditioned medium; assay type: cell-based; details: 1 μM + 6 μM 7KCh, 48 hr
Protocol: as §4, §2
The levels of secreted VEGF, IL-6, IL-8, and TNF-α in conditioned medium of ARPE-19 cell cultures were measured 48 hr after treatments of 6 μM 7KCh and 1 μM fatty acids using the Quantkine ELISA kits from R&D systems (Minneapolis, Minn.). The protein levels were measured in triplicates. The ELISA results were quantified using an Envision multilable plate reader (PerkinElmer, Covina, Calif.) and presented in percentage relative to the vehicle-only control.

[10] = 8 μM 7KCh alone or with 1 μM fatty acid

CCCCC/C=C\C/C=C\C/C=C\C/C=C\CCCC(=O)O [arachidonic acid, Arachidonic acid]
effect on 7KCh-mediated mRNA induction (inflammatory response) (ARPE-19 cells [1]): either ineffective or enhanced | CONC. (μM): lowest concentration required to maintain full cell viability against 7KCh (ARPE-19 cells [2]): 10 µM

CCCCCCCC[C@@H]1C[C@@H]1CCCCCCCC(=O)O [dihydrosterculic acid, Dihydrosterculic acid]
increase of cell viability compared to 7KCh alone treatment (ARPE19 cells [3]): 20% | increase of cell viability compared to 7KCh alone treatment (ARPE19 cells [4]): 20% | protection of cell confluency and morphology (images) (ARPE19 cells [5]; 0.5 μM co-treatment with 12 μM 7KCh): no effect | protection of cell confluency and morphology (images) (ARPE19 cells [5]; 1 μM co-treatment with 12 μM 7KCh): slight effect | protection of cell confluency and morphology (images) (ARPE19 cells [5]; 1 μM co-treatment with 12 μM 7KCh, listed as Dihydrosterculic acid): do not have such protection effect | VEGF mRNA expression (ARPE-19 cells [1]; [10]): essentially ineffective | IL-6 mRNA expression (ARPE-19 cells [1]; [10]): somewhat effective | GRP78 mRNA expression (ARPE-19 cells [1]; [10]): somewhat effective | CHOP mRNA expression (ARPE-19 cells [1]; [10]): somewhat effective | cell morphological changes compared to 7KCh alone (ARPE19 cells [6]): more cells compared to 7KCh alone | CONC. (μM): lowest concentration required to maintain full cell viability against 7KCh (ARPE-19 cells [2]): 10 µM

CC/C=C\C/C=C\C/C=C\C/C=C\C/C=C\C/C=C\CCC(=O)O [docosahexaenoic acid]
CONC. (μM): lowest concentration required to maintain full cell viability against 7KCh (ARPE-19 cells [2]): 5 µM

CCCCC/C=C\C/C=C\CCCCCCCC(=O)O [linoleic acid]
effect on 7KCh-mediated mRNA induction (inflammatory response) (ARPE-19 cells [1]): either ineffective or enhanced | CONC. (μM): lowest concentration required to maintain full cell viability against 7KCh (ARPE-19 cells [2]): 5 µM

CCCCCCCCCCCCCCCCCC(=O)O [stearic acid]
antagonistic effect to 7KCh-mediated mRNA induction (ARPE-19 cells [1]; 1 μM + 8 μM 7KCh, FIGS. 14, 15): did not show any antagonistic effect | effect on 7KCh-mediated mRNA induction (inflammatory response) (ARPE-19 cells [1]): either ineffective or enhanced | effect of fatty acid alone on the mRNA expression of the cytokines (ARPE-19 cells [1]; 1 μM fatty acid alone, no 7KCh, FIGS. 14, 15): no effect | induction of VEGF mRNA (ARPE-19 cells [1]; 8 μM 7KCh alone or with 1 μM fatty acid, FIG. 14A): 8.8 fold | induction of IL-6 mRNA (ARPE-19 cells [1]; 8 μM 7KCh alone or with 1 μM fatty acid, FIG. 14C): 29 fold | effect on 7KCh-induced CHOP and GRP78 protein expression (ARPE-19 cells [7]): no effect | antagonist effect to the cytokine inductions by TNF-α (ARPE-19 cells [8]; 1 μM fatty acid + 2 ng/ml TNF-α): seemed to enhance | morphological effects on the cells (images) (ARPE-19 cells [2]; 1 μM + 12 μM 7KCh, 24 hr, FIG. 12C): no effect | protective effect against 7KCh-mediated cell death (ARPE-19 cells [2]; 12 μM 7KCh, 24 hr, 0.1-10 μM fatty acid): did not demonstrate any protective effect | effect on secreted VEGF, IL-6, IL-8 protein levels (ARPE-19 cells [9]): no measurable effect

CC/C=C\C/C=C\C/C=C\CCCCCCCC(=O)O [α-linolenic acid]
VEGF mRNA expression (ARPE-19 cells [1]; [10]): essentially ineffective | IL-6 mRNA expression (ARPE-19 cells [1]; [10]): somewhat effective | GRP78 mRNA expression (ARPE-19 cells [1]; [10]): somewhat effective | CHOP mRNA expression (ARPE-19 cells [1]; [10]): somewhat effective | CONC. (μM): lowest concentration required to maintain full cell viability against 7KCh (ARPE-19 cells [2]): 5 µM

TNF-α
induction of GRP78 mRNA expression (ARPE-19 cells [8]; 2 ng/ml TNF-α alone or with 1 μM fatty acid, FIG. 17D): 2.5 fold | induction of IL-1β mRNA expression (ARPE-19 cells [8]; 2 ng/ml TNF-α): 9 fold | induction of IL-8 mRNA expression (ARPE-19 cells [8]; 2 ng/ml TNF-α): 8 fold | induction of IκBα mRNA expression (ARPE-19 cells [8]; 2 ng/ml TNF-α): 3 fold
